Measured values: patent US5514648A, “Fungicidally active compounds” (priority 1990, dated 1996)
Where a SMILES comes first, the peptide text is derived from it. [ ]: non-standard residue; d: D form. NMeI = CC[C@H](C)[C@H](NC)C(=O)O; NMeD = CN[C@@H](CC(=O)O)C(=O)O; NMeV = CN[C@H](C(=O)O)C(C)C; Pip = O=C(O)[C@@H]1CCCCN1; dLac = C[C@@H](O)C(=O)O

Columns and labels:
[1] = Ames spot tests; format: cell-based; conditions: crystalline compound
Text: (§1) The toxicity of BK 202 was investigated in the following tests using the compound of formula IV in crystaline form: […]
(§2) Ames spot tests and in vitro testing of dermal irritation (Skintex®).

[2] = in vitro testing of dermal irritation (Skintex)
Text: as §1, §2

[3] = Toxicology IC50, Chemiluminescent; conditions: estimated
Description: Based on these tests the IC50 values for BK 202 were estimated as: Chemiluminescent >10 μg/ml

[4] = tested on: V. inequalis; experiment: Fungicidal activity, mycelial growth on potato dextrose agar; format: cell-based, Venturia inequalis; conditions: in as low concentrations as 0.0016 μg/ml, 3 to 6 days
Description: (§3) Experiments were carried out to determine the potency of the compound of formula IV towards various fungi. The active ingredient was dissolved in 60% ethanol and added to cooled potato dextrose agar to give final concentrations of 25, 5, 1, 0.2, 0.04 and 0.0016 μg a.i. per ml agar, respectively. Control dishes contained no active ingredient.
(§4) 10 ml Agar was poured into 9 cm petri dishes and each concentration was inoculated with actively growing mycelium of the fungal isolates tested for. The dishes were incubated at the optimum temperature for growth of the isolates for 3 to 6 days after which time the growth was measured in mm and compared to the controls.
(§5) The test isolates covered a broad range of fungi within the Oomycetes, the Ascomycetes, the Basidiornycetes, the Deuterornycetes, and the Zygomycetes.

[5] = tested on: S. sclerotiorum; experiment: as above; format: cell-based, Sclerotinia sclerotiorum; conditions: in as low concentrations as 0.0016 μg/ml, 3 to 6 days
Description: as §3, §4, §5

[6] = tested on: M. fructigena; experiment: as above; format: cell-based, Monilinia fructigena; conditions: in as low concentrations as 0.0016 μg/ml, 3 to 6 days
Description: as §3, §4, §5

[7] = tested on: A. fumigatus; experiment: as above; format: cell-based, Aspergillus fumigatus; conditions: in as low concentrations as 0.0016 μg/ml, 3 to 6 days
Description: as §3, §4, §5

[8] = tested on: P. digitatum; experiment: as above; format: cell-based, Penicillium digitatum; conditions: in as low concentrations as 0.0016 μg/ml, 3 to 6 days
Description: as §3, §4, §5

[9] = tested on: B. cinerea; experiment: as above; format: cell-based, Botrytis cinerea; conditions: in as low concentrations as 0.0016 μg/ml, 3 to 6 days
Description: as §3, §4, §5

[10] = tested on: C. beticola; experiment: as above; format: cell-based, Cercospora beticola; conditions: 25 to 0.0016 μg a.i. per ml agar, 3 to 6 days
Description: as §3, §4, §5

[11] = tested on: A. alternata; experiment: as above; format: cell-based, Alternaria alternata; conditions: 25 to 0.0016 μg a.i. per ml agar, 3 to 6 days
Description: as §3, §4, §5

[12] = tested on: Zygomycetous species; experiment: as above; format: cell-based, Zygomycetes; conditions: 25 to 0.0016 μg a.i. per ml agar
Description: as §3, §4, §5

[13] = tested on: Basidiornycetous species; experiment: as above; format: cell-based, Basidiornycetes; conditions: 25 to 0.0016 μg a.i. per ml agar
Description: as §3, §4, §5

[14] = tested on: Deuterornycetous species; experiment: as above; format: cell-based, Deuterornycetes; conditions: 25 to 0.0016 μg a.i. per ml agar
Description: as §3, §4, §5

[15] = tested on: plants; experiment: Phytotoxic activity on plants; format: in vivo; conditions: at the concentrations used in Examples 1 to 7
[16] = tested on: Botrytis cinerea; experiment: Field trial, Botrytis cinerea on strawberries (Senga-Sengana); format: in vivo; conditions: 100, 300, and 900 g a.i./ha, four sprayings
Text: Field trial performed in Funen, Denmark, in accordance with the EPPO guidelines (Guideline for the Biological Evaluation of Fungicities. Botrytis cinerea on Strawberries). The plot size was 20 m^2 and three replicates were used. The active compound was used in a test formulation containing approximately 10% active ingredient (a.i.). Three concentrations of active compound were applied: 100, 300, and 900 g a.i./ha. The spraying volume was 1200 l/ha. The strawberries were sprayed at the following growth stages: T1, onset of flowering; T2 : 10% flowering; T3, 50% flowering; and T4, 80% flowering. The commercial fungicide ROVRAL® was used as standard reference. The assessment was performed by counting and weighing healthy and infected strawberries, respectively.

[17] = tested on: Botrytis cinerea; experiment: Field trial, Botrytis cinerea on grapes (Ugni Blanc); format: in vivo; conditions: 100, 300, and 900 g a.i./ha, three sprayings
Text: Field trial performed in Bordeaux, France, in accordance with CEB Method No. 37. A plot consisted of 15 plants in one row and six replicates were used. The active compound was used in a test formulation containing approximately 10% active ingredient (a.i.). Three concentrations of active compound were applied: 100, 300, and 900 g a.i./ha. The water volume was 300 l/ha. The grapes were sprayed at the following growth stages: T1, end of formation of bunches of grapes; T2, beginning of ripening of grapes; and T3, 3 to 4 weeks before harvest. The commercial fungicides […]® and BASULTRA® were used as standard references. The assessment was performed by estimating the intensity and frequency of the Botrytis cinerea attack after the appearance of the disease.

[18] = tested on: Botrytis cinerea isolate C (sensitive, normal); experiment: In vitro agar growth assay, sensitive Botrytis cinerea; format: cell-based; conditions: 3 days, 25 C, control 74
Description: Activity against fungicide resistant Botrytis cinerea isolates One isolate resistant to BENLATE® (isolate A), and one isolate resistant to BENLATE®,ROVRAL® and SUMISCLEX® (isolate B) were isolated from plants which had been sprayed with the above mentioned pesticides. The effect of BK 202 on these isolates was determined in an in vitro assay and compared with the three commercial pesticides. The fungicides were added to agar and dispensed in petri dishes at different concentrations and were inoculated with a sensitive (normal(isolate C)) and the two resistant strains. After 3 days at a temperature of 25 C growth was measured in mm.

[19] = tested on: Monilinia fructigena; experiment: Activity against Monilinia fructigena on apples (Golden Delicious); format: in vivo; conditions: for number of infected wounds (maximum 20): 5 days, 0 mg ai/l gives 20
Description: Apples were surface sterilized, each punctured 5 times with a nail 2.1 mm in diameter, dipped in suspensions containing 0, 0.5, 5, 50, and 500 mg a.i. per 1. The active ingredient was (i) BK 202, (ii) benomyI(BENLATE®), (iii) iprodione(ROVRAL®). Four apples were punctured and treated with each concentration of the three pesticides giving a total of 20 wounds per concentration. The fruits were placed in plastic containers in rows with the wounds facing upwards. After 24 hours, the wounded areas were sprayed with a suspension of Monilinia fructigena containing 1×10^5 spores per ml. The containers were then covered with polyethylene bags and kept at room temperature (approximately22° C.).
After 5 days the effects were assessed by counting the number of infected wounds (maximum 20 infected wounds per treatment).

SMILES: CC[C@H](C)[C@H]1C(=O)NCC(=O)N(C)[C@@H](C(C)C)C(=O)N[C@@H](Cc2ccc(OC)cc2)C(=O)O[C@H](C)C(=O)N2CCCC[C@H]2C(=O)N(C)[C@@H](C(C)C)C(=O)N[C@@H](C(C)C)C(=O)N(C)[C@@H](CC(=O)O)C(=O)N(C)[C@@H](C(C)C)C(=O)N1C [BK 202, cyclo- Pec-MeVal-Val-MeAsp-MeVal-MeIle-Gly-MeVal-TyrOMe-D-Lact!] (cyclo(G[NMeV]Y(Me)[dLac][Pip][NMeV]V[NMeD][NMeV][NMeI]))
- Ames spot tests [1]: no indication of toxicity
- dermal irritation score, Skintex® test [2]: lowest possible irritation
- IC50, Chemiluminescent [3]: > 10 µg/mL
- inhibition of growth [4]: very strong
- inhibition of growth [5]: very strong
- inhibition of growth [6]: very strong
- inhibition of growth [7]: very strong
- inhibition of growth [8]: very strong
- inhibition of growth [9]: very strong
- inhibition of growth [10]: weaker
- inhibition of growth [11]: weaker
- fungicidal activity [12]: Only weak activity
- fungicidal activity [13]: practically no activity
- fungicidal activity [14]: most active
- phytotoxic activity [15]: no phytotoxic activity has been observed
- fungicidal effect (degree of infection, FIG. 8) compared to ROVRAL® [16]: superior
- fungicidal effect (intensity of infection, FIG. 9) compared to both RONILAN® and BASULTRA® [17]: superior
- growth, Isolate C ([18]; concentration 0.125 (unit not given)): 0 mm
- growth, Isolate C ([18]; concentration 2 (unit not given)): 0 mm
- growth, Isolate C ([18]; concentration 10 (unit not given)): 0 mm
- number of infected wounds (maximum 20) ([19]; 0.5 mg ai/l dip): 18
- number of infected wounds (maximum 20) ([19]; 5.0 mg ai/l dip): 14
- number of infected wounds (maximum 20) ([19]; 50 mg ai/l dip): 7
- number of infected wounds (maximum 20) ([19]; 500 mg ai/l dip): 1
- activity towards M. fructigena in comparison to the two commercial fungicides tested ([19]; versus BENLATE® and ROVRAL®): superior
